Laboratory results taken from patent publication US20090215853A1, “Flavopereirine and alstonine combinations in the treatment and prevention of prostate cancer” (Natural Source International, priority 2004, published 2009).

Key:
[1] = system: normal DNA; conditions: Oncotest; cited from earlier work
[2] = system: LNCaP cells; experiment: Induction of apoptosis in LNCaP cells (PARP cleavage, Caspase-3 activity); assay type: cell-based, human; conditions: 24 hours (FIG. 2)

SMILES | effect on normal DNA [1] | apoptosis as determined by cleavage of PARP and induction of Caspase-3 [2]
COC(=O)C1=CO[C@@H](C)[C@@H]2Cn3ccc4c5ccccc5nc-4c3C[C@H]12 [alstonine] | no effect on normal DNA | relatively minor effect
CCc1ccc2c3[nH]c4ccccc4c3cc[n+]2c1 [flavopereirine] | no effect on normal DNA | induction of apoptosis
